The source of these data is patent US20090317335A1, “Hybrid Nanomaterials as Multimodal Imaging Contrast Agents” (priority 2006, published 2009).

This assay is described as follows: MR relaxivity (T1/T2) on 3.0 Tesla MRI scanner. Type of assay: physicochemical. How it is done: Thermogravimetric analysis (TGA) was performed using a Shimadzu TGA-50 (Shimadzu Corp., Kyoto, Japan) equipped with a platinum pan and heated at a rate of 3° C./min under air. A Hitachi 4700 field emission scanning electron microscope (SEM; Hitachi Ltd., Tokyo, Japan) and a JEM 100CX-II transmission electron microscope (JEOL Ltd., Tokyo, Japan) were used to determine particle size and morphology. Scanning electron microscope (SEM) images of the nanoparticles were taken on glass substrate. A Cressington 108 Auto Sputter Coater (Cressington Scientific Instruments, Ltd., Watford, United Kingdom) equipped with an Au/Pd (80/20) target and M™-10 thickness monitor was used to coat the sample with approximately 5 nm of conductive layer before taking SEM images. Gd^3+ ion concentration was measured on a SpectraSpan7 Direct Current Plasma (DCP) Spectrometer (Applied Research Laboratories, La Brea, Calif., United States of America). […] T1 and T2 values were determined on a Bruker 3.0 Tesla full body Magnetic Resonance Imaging (MRI) scanner (Bruker BioSpin MRI GmbH, Ettlingen, Germany). […] Fluorescence microscope images were taken with a Zeiss Axiovert 100 TV Fluorescence Microscope (Carl Zeiss, Inc., Thornwood, N.Y., United States of America) using a FITC filter. T1 values were obtained using the standard inversion-recovery method, whereas T2 values were determined using spin-echo pulse sequences. […]

In the case of “bis(aminopropyl-triethoxysilyl)diethylenetriamine pentaacetate gadodiamide [Gd—Si-DTPA complex]”, the “longitudinal relaxivity (r1)” value (per mM of Gd^3+ (metal ion), 3.0 Tesla scanner, water or 0.1% Xanthan gum) stood at 6.2 s⁻¹.
For “gadolinium (aminopropyltrimethoxysilyl) diethylenetriamine tetraacetate [Gd—Si-DTTA complex]”, the r1 (molecular complex, for comparison with 1) is 6.8 s^−1 mM^−1 Gd^3+.
